Values joined by “and” are separate entries in the source; they are usually repeats but may differ in a detail not shown here. Identical values can stand only once. Positions of bridges follow the written chain, without caps; N, C: chain ends. Non-standard residues stand in square brackets, D forms with d. Residues, ends and D or L forms follow the SMILES beside them. Phe(4-NH2) = Nc1ccc(C[C@H](N)C(=O)O)cc1; Trx = NC[C@H]1CC[C@H](C(=O)O)CC1; βAla = NCCC(=O)O
Target: T1, human plasmin (Homo sapiens, UniProt P00747)
T1 construct: purchased Calbiochem
Experiment: Inhibition of human plasmin, fluorogenic substrate Mes-DArg-Phe-Arg-AMC
Assay type: biochemical
Conditions: for Ki: inhibition of plasmin, steady-state velocities, equation 1; for fold weaker plasmin inhibition than inhibitor 28: compared with cyclic inhibitor 28
Experimental: All inhibitors prepared in this study act as reversible competitive plasmin inhibitors, their K i values were calculated by fitting the steady‐state velocities as function of the inhibitor concentrations using equation 1. 4‐aminophenylalanine (Phe(4‐NH2)) was incorporated as P1’ residue in the first inhibitor series, which enabled a macrocyclization via amide bond formation from its side chain amino group using various linker segments and P2’ residues (Table 1). […] The improved potency of SFTI‐1 analogues with basic P2’ residues[9] stimulated the incorporation of Arg in that position leading to inhibitor 4 with a slightly stronger inhibitory potency. A significant improvement could be achieved when using 3‐ or 4‐aminophenylacetic acid as P2’ group in combination with elongated linker residues (5‐6). […] However, inhibitor 9 is a twofold stronger plasmin inhibitor compared to its analogue 8.
For these inhibitors the steady‐state velocities were calculated by fitting the progress curves to equation 2 providing an additional apparent first‐order rate constant k obs for each curve. The steady‐state rates were used for K i determination with equation 1 and the k obs values for the calculation of the association rate constants k on according to equation 3. The dissociation rate constant k off was calculated from the known K i and k on values using equation 4. The enzyme kinetic evaluation of slow‐binding inhibitors of plasmin has already been described in detail in our two previous publications.[11, 12]
All measurements were conducted as triplicates in black 96‐well FluoroNunc MaxiSorp plates (Nunc, Langenselbold, Germany) and suitable fluorogenic substrates at room temperature. […] Each well contained a total volume of 180 μL consisting of 100 μL of inhibitor dissolved in buffer, 40 μL of the substrate Mes‐DArg‐Phe‐Arg‐AMC[11] (100 μM in assay, KM=16.1 μM) dissolved in water and 40 μL of plasmin solution (0.27 nM in assay). The following equations were used for the enzyme kinetic analysis as described in the results section and in our previous publications.[11, 12] (1) [drawing 71] (2) [drawing 72] (3) [drawing 73] (4) [drawing 74]

[1] = K i (μM), series one, 4-aminophenylalanine in P1'
[2] = K i (nM), series two, substituted Bpa in P1', and acyclic analogues

T1 sequence (P00747 581-810): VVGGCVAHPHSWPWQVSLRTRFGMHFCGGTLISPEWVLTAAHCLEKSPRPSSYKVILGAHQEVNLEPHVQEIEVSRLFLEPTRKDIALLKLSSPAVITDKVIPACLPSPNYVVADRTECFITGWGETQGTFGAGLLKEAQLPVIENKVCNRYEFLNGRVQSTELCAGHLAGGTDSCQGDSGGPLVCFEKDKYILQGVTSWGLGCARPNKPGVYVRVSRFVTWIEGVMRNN
T1 sequence (P00747 97-580): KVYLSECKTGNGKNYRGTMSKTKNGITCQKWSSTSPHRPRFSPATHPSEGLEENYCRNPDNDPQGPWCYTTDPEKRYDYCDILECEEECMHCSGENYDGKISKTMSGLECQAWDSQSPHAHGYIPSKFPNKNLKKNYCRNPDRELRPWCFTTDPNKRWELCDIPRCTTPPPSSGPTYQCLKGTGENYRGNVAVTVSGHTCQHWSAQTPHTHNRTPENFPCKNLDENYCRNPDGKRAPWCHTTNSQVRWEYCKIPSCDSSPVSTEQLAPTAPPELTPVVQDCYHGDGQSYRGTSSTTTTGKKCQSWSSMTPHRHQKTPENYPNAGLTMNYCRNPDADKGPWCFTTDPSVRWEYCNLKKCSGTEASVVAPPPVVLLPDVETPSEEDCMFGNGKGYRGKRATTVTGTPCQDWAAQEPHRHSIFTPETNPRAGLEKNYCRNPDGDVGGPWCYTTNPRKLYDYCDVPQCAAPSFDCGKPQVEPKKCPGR

Row | SMILES | Ki [1] | Ki [2] | further results
1 | N=C(N)NCCC[C@@H]1NC(=O)[C@@H](NC(=O)[C@H]2CC[C@H](CN)CC2)Cc2ccc(cc2)NC(=O)CCNC1=O [inhibitor 4] (H-[Trx][Phe(4-NH2)]R[βAla]; lactam 2-C) | 110 ± 56 µM |  | 
2 | NC[C@H]1CC[C@H](C(=O)N[C@H]2Cc3ccc(cc3)NC(=O)CCCCCNC(=O)Cc3cccc(c3)NC2=O)CC1 [inhibitor 5] | 5.81 ± 1.09 µM |  | 
3 | NC[C@H]1CC[C@H](C(=O)N[C@H]2Cc3ccc(cc3)NC(=O)CCCCCNC(=O)Cc3ccc(cc3)NC2=O)CC1 [inhibitor 6] | 1.38 ± 0.15 µM |  | 
4 | NC[C@H]1CC[C@H](C(=O)N[C@H]2Cc3ccc(cc3)NC(=O)CCCCNC(=O)Cc3ccc(cc3)NC2=O)CC1 [inhibitor 7] | 2.45 ± 0.02 µM |  | 
5 | NC[C@H]1CC[C@H](C(=O)N[C@H]2Cc3ccc(cc3)NC(=O)CCNC(=O)CNC(=O)Cc3ccc(cc3)NC2=O)CC1 [inhibitor 8] | 5.53 ± 0.42 µM |  | 
6 | Cc1ccc2cc1NC(=O)Cc1ccc(cc1)NC(=O)Cc1ccc(cc1)NC(=O)[C@@H](NC(=O)[C@H]1CC[C@H](CN)CC1)Cc1ccc-2cc1 [inhibitor 24] |  | 0.0105 ± 0.0014 µM | fold enhanced plasmin potency compared with compound 22: 4 fold
7 | Cc1ccc2cc1NC(=O)CCNC(=O)CNC(=O)Cc1ccc(cc1)NC(=O)[C@@H](NC(=O)[C@H]1CC[C@H](CN)CC1)Cc1ccc-2cc1 [inhibitor 26] |  | 0.0331 ± 0.0032 µM | 

More lines, main results first:

Row | Ki [1] | Ki [2] | SMILES | further results
8 | 150 ± 31 µM |  | NC[C@H]1CC[C@H](C(=O)N[C@H]2Cc3ccc(cc3)NC(=O)CCNC(=O)CNC2=O)CC1 [inhibitor 3] (H-[Trx][Phe(4-NH2)]G[βAla]; lactam 2-C) | 
9 | 2.82 ± 0.2 µM |  | NC[C@H]1CC[C@H](C(=O)N[C@H]2Cc3ccc(cc3)NC(=O)CNC(=O)CCNC(=O)Cc3ccc(cc3)NC2=O)CC1 [inhibitor 9] | 
10 | 3.33 ± 0.41 µM |  | CC(C)C[C@@H]1NC(=O)CCNC(=O)Cc2ccc(cc2)NC(=O)[C@@H](NC(=O)[C@H]2CC[C@H](CN)CC2)Cc2ccc(cc2)NC1=O [inhibitor 10] | 
11 | 3.85 ± 0.28 µM |  | CC(C)C[C@H]1NC(=O)CCNC(=O)Cc2ccc(cc2)NC(=O)[C@@H](NC(=O)[C@H]2CC[C@H](CN)CC2)Cc2ccc(cc2)NC1=O [inhibitor 11] | 
12 | 0.71 µM and 0.714 µM |  | NC[C@H]1CC[C@H](C(=O)N[C@H]2Cc3ccc(cc3)NC(=O)[C@H](Cc3ccccc3)NC(=O)CCNC(=O)Cc3ccc(cc3)NC2=O)CC1 [inhibitor 12, (1r,4S)‐4‐(aminomethyl)‐N‐((4S,9S)‐9‐benzyl‐3,8,11,15‐tetraoxo‐2,7,10,14‐tetraaza‐1,6(1,4)‐dibenzenacyclohexadecaphane‐4‐yl)cyclohexane‐1‐carboxamide] | 
13 |  | 0.042 µM and 0.0421 µM | Cc1ccc2cc1NC(=O)CCCCCNC(=O)Cc1ccc(cc1)NC(=O)[C@@H](NC(=O)[C@H]1CC[C@H](CN)CC1)Cc1ccc-2cc1 [inhibitor 22] | 
14 |  | 0.109 ± 0.004 µM | Cc1ccc2cc1NC(=O)C1CCC(CC1)CNC(=O)Cc1ccc(cc1)NC(=O)C(NC(=O)C1CCC(CN)CC1)Cc1ccc-2cc1 (stereo not shown) [inhibitor 23] | 
15 |  | 0.0338 ± 0.0014 µM | Cc1ccc2cc1NC(=O)CNC(=O)CCNC(=O)Cc1ccc(cc1)NC(=O)[C@@H](NC(=O)[C@H]1CC[C@H](CN)CC1)Cc1ccc-2cc1 [inhibitor 25] | fold weaker plasmin inhibition than inhibitor 28: at least 20 fold
16 |  | 0.017 ± 0.0006 µM | Cc1ccc2cc1NC(=O)CCCNC(=O)CNC(=O)Cc1ccc(cc1)NC(=O)[C@@H](NC(=O)[C@H]1CC[C@H](CN)CC1)Cc1ccc-2cc1 [inhibitor 27] | fold weaker plasmin inhibition than inhibitor 28: at least 20 fold

Reference: PMC11617653, “Macrocyclic Inhibitors Targeting the Prime Site of the Fibrinolytic Serine Protease Plasmin” (Chemmedchem, 2024)
